Assay results published in patent EP4806891A1 (Kangbaida (Sichuan) Biotechnology Co., Ltd., priority 2023, dated 2025).

Target: T1, HEK-Blue-hTLR9 cells (Homo sapiens, UniProt Q9NR96)
T1 construct: expressed in transfected cells; host or cells: HEK-Blue-hTLR9 cells (HEK293-derived reporter line)
T1 sequence (Q9NR96 26-1032): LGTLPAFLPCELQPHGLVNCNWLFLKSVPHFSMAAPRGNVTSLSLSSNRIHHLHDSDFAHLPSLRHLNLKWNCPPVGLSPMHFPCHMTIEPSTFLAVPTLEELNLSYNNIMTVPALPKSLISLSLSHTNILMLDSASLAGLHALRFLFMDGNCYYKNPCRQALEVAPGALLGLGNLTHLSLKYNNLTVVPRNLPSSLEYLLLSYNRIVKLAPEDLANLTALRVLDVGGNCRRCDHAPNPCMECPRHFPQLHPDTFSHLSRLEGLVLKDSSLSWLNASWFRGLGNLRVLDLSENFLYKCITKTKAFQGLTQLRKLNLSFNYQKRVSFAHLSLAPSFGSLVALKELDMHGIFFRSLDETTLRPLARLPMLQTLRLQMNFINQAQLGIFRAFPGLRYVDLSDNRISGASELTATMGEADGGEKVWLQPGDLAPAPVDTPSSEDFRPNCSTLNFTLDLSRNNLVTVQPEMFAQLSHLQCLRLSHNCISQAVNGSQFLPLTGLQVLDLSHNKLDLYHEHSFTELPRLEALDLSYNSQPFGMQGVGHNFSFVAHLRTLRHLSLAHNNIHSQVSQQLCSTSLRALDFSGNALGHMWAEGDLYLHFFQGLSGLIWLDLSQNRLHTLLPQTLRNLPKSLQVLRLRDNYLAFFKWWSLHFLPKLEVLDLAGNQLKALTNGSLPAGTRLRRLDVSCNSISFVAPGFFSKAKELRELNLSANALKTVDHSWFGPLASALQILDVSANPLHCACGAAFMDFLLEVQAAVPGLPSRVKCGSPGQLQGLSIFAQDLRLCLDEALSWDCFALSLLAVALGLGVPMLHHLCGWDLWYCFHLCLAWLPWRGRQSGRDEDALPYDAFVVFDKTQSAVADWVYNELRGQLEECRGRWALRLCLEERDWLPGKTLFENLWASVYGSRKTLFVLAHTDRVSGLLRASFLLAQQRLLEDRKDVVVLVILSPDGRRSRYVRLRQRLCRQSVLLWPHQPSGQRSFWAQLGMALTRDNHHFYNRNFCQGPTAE
Assay: HEK-Blue-hTLR9 cell inhibition assay
Type: cell-based
Settings: ODN2006 1 µM, 16 h, OD 620 nm, read-out: TLR9 IC50
Description: HEK-Blue-hTLR7/8/9 cell inhibition assay
1. HEK-Blue-hTLR7/8 cells (1 × 10^4 cells/well) and HEK-Blue-hTLR9 cells (1.5 × 10^4 cells/well) were seeded in a 384-well cell culture plate, with a volume of 30 µL per well. The plate was incubated at 37°C in a 5% CO2 incubator for 4 h. 2. The compound was prepared with DMSO and diluted in DMEM medium to 10 concentrations (1:3 dilution), with final concentrations of 10000, 3333.3, 1111.1, 370.4, 123.5, 41.2, 13.7, 4.6, 1.5, and 0.5 nM; R848 was prepared with DMSO and diluted in DMEM medium, with final concentrations of 0.8 µM (HEK-Blue-hTLR7) and 3 µM (HEK-Blue-hTLR8); ODN2006 was prepared with endotoxin-free water and diluted in DMEM medium, with a final concentration of 1 µM. 3. Cells treated with DMSO were used as the blank control group, while cells treated solely with Resiquimod (R848) were used as the positive control group for HEK-Blue-hTLR7/8, and cells treated solely with ODN2006 were used as the positive control group for HEK-Blue-hTLR9. Cells treated with the test compound together with R848 or ODN2006 were used as the test group. Two parallel wells were set for each group and were placed at 37°C in a 5% CO2 incubator for incubation. 4. After being incubated for 4 h, the 384-well plate of HEK-Blue-hTLR7/8 was taken out from the incubator, and R848 alone or both R848 and the diluted compound were separately added into each well. The plate was placed at 37°C in a 5% CO2 incubator for incubation for 16 h; the 384-well plate of HEK-Blue-hTLR9 was taken out from the incubator, and ODN2006 alone or both ODN2006 and the diluted compound were added separately to each well. The plate was incubated at 37°C in a 5% CO2 incubator for 16 h. 5. After being incubated for 16 h, the 384-well plate was removed from the incubator and centrifuged at 1000 rpm for 1 minute. The optical density value of each well at 620 nm was measured using a multifunctional microplate reader. 6. The cell inhibition rate was calculated as (1-(OD620 test group-OD620 blank group)/(OD620 positive group-OD620 blank group))×100%, and the half maximal inhibitory concentration (IC50) was calculated through curve fitting. Table 1: Activity of the compounds of the present disclosure in HEK-Blue-hTLR7/8/9 cellular assays

| IC50 [nM] | Compound |
| --- | --- |
| > 10000 | N#Cc1ccc(N2C[C@]3(c4nnc(C5CCN(CC(N)=O)CC5)o4)C[C@]3(C(F)(F)F)C2)c2cccnc12 [Compound 17, 2-(4-(5-((1S,5R)-3-(8-cyanoquinolin-5-yl)-5-(trifluoromethyl)-3-azabicyclo[3.1.0]hexan-1-yl)-1,3,4-oxadiazol-2-yl)piperidin-1-yl)acetamide] |
| > 1000 | CN1CCC(Oc2nnc([C@]34CN(c5ccc(C#N)c6ncccc56)C[C@@]3(C(F)(F)F)C4)o2)CC1 [Compound 15, 5-((1S,5R)-1-(5-((1-methylpiperidin-4-yl)oxy)-1,3,4-oxadiazol-2-yl)-5-(trifluoromethyl)-3-azabicyclo[3.1.0]hexan-3-yl)quinoline-8-carbonitrile] |
| > 1000 | CN1CCC(c2nnc([C@]34CN(c5c(Br)cc(C#N)n6ncc(Br)c56)C[C@@]3(C(F)(F)F)C4)o2)CC1 [Compound 85, 3,5-dibromo-4-((1S,5R)-1-(5-(1-methylpiperidin-4-yl)-1,3,4-oxadiazol-2-yl)-5-(trifluoromethyl)-3-azabicyclo[3.1.0]hexan-3-yl)pyrazolo[1,5-a]pyridine-7-carbonitrile] |
| > 1000 | COc1ccc(N2C[C@]3(c4nnc(C5CCN(C)CC5)o4)C[C@]3(C(F)(F)F)C2)c2cccnc12 [Compound 66, 2-((1S,5R)-3-(8-methoxyquinolin-5-yl)-5-(trifluoromethyl)-3-azabicyclo[3.1.0]hexan-1-yl)-5-(1-methylpiperidin-4-yl)-1,3,4-oxadiazole] |
| > 1000 | FC(F)(F)c1ccc(N2C[C@]3(c4nnc(C5(F)CCNCC5)o4)C[C@]3(C(F)(F)F)C2)c2cccnc12 [Compound 3, 2-(4-fluoropiperidin-4-yl)-5-((1S,5R)-5-(trifluoromethyl)-3-(8-(trifluoromethyl)quinolin-5-yl)-3-azabicyclo[3.1.0]hexan-1-yl)-1,3,4-oxadiazole] |
| > 1000 | CN1CCC(c2nnc([C@]34CN(c5ccc(C#N)n6ncc(Cl)c56)C[C@@]3(C(F)(F)F)C4)o2)CC1 [Compound 84, 3-chloro-4-((1S,5R)-1-(5-(1-methylpiperidin-4-yl)-1,3,4-oxadiazol-2-yl)-5-(trifluoromethyl)-3-azabicyclo[3.1.0]hexan-3-yl)pyrazolo[1,5-a]pyridine-7-carbonitrile] |
| > 1000 | FC(F)(F)c1ccc(N2C[C@]3(c4nnc(C5CCN(CC6CC6)CC5)o4)C[C@]3(C(F)(F)F)C2)c2cccnc12 [Compound 76, 2-(1-(cyclopropylmethyl)piperidin-4-yl)-5-((1S,5R)-5-(trifluoromethyl)-3-(8-(trifluoromethyl)quinolin-5-yl)-3-azabicyclo[3.1.0]hexan-1-yl)-1,3,4-oxadiazole] |
| > 1000 | CN1CCC(c2nnc([C@]34CN(c5c(Br)cc(C#N)n6nccc56)C[C@@]3(C(F)(F)F)C4)o2)CC1 [Compound 86, 5-bromo-4-((1S,5R)-1-(5-(1-methylpiperidin-4-yl)-1,3,4-oxadiazol-2-yl)-5-(trifluoromethyl)-3-azabicyclo[3.1.0]hexan-3-yl)pyrazolo[1,5-a]pyridine-7-carbonitrile] |
| > 1000 | CN1CCC(Oc2nnc([C@]34CN(c5ccc(C#N)n6ncc(F)c56)C[C@@]3(C(F)(F)F)C4)o2)CC1 [Compound 31, 3-fluoro-4-((1S,5R)-1-(5-((1-methylpiperidin-4-yl)oxy)-1,3,4-oxadiazol-2-yl)-5-(trifluoromethyl)-3-azabicyclo[3.1.0]hexan-3-yl)pyrazolo[1,5-a]pyridine-7-carbonitrile] |
| > 1000 | CN1CC(Cc2nnc([C@]34CN(c5ccc(C#N)c6ncccc56)C[C@@]3(C(F)(F)F)C4)o2)C1 [Compound 36, 5-((1S,5R)-1-(5-((1-methylazetidin-3-yl)methyl)-1,3,4-oxadiazol-2-yl)-5-(trifluoromethyl)-3-azabicyclo[3.1.0]hexan-3-yl)quinoline-8-carbonitrile] |
| > 1000 | CN(C)C12CCC(c3nnc([C@]45CN(c6ccc(C#N)c7ncccc67)C[C@@]4(C(F)(F)F)C5)o3)(CC1)CC2 [Compound 53, 5-((1S,5R)-1-(5-(4-(dimethylamino)bicyclo[2.2.2]octan-1-yl)-1,3,4-oxadiazol-2-yl)-5-(trifluoromethyl)-3-azabicyclo[3.1.0]hexan-3-yl)quinoline-8-carbonitrile] |
| > 10000 | N#Cc1ccc(N2C[C@]3(c4nnc(C#CCN5CCOCC5)o4)C[C@]3(C(F)(F)F)C2)c2cccnc12 [Compound 24, 5-((1S,5R)-1-(5-(3-morpholinoprop-1-yn-1-yl)-1,3,4-oxadiazol-2-yl)-5-(trifluoromethyl)-3-azabicyclo[3.1.0]hexan-3-yl)quinoline-8-carbonitrile] |

| Compound | IC50 [nM] |
| --- | --- |
| N#Cc1ccc(N2C[C@]3(c4nnc(C5CC6(CNC6)C5)o4)C[C@]3(C(F)(F)F)C2)c2cccnc12 [Compound 18, 5-((1S,5R)-1-(5-(2-azaspiro[3.3]heptan-6-yl)-1,3,4-oxadiazol-2-yl)-5-(trifluoromethyl)-3-azabicyclo[3.1.0]hexan-3-yl)quinoline-8-carbonitrile] | < 1000 |
| CN1CCC(O)(c2nnc([C@]34CN(c5ccc(C(F)(F)F)c6ncccc56)C[C@@]3(C(F)(F)F)C4)o2)CC1 [Compound 94, 1-methyl-4-(5-((1S,5R)-5-(trifluoromethyl)-3-(8-(trifluoromethyl)quinolin-5-yl)-3-azabicyclo[3.1.0]hexan-1-yl)-1,3,4-oxadiazol-2-yl)piperidin-4-ol] | > 1000 |
| CN1CC(c2nnc([C@]34CN(c5ccc(C#N)c6ncccc56)C[C@@]3(C(F)(F)F)C4)o2)C1 [Compound 39, 5-((1S,5R)-1-(5-(1-methylazetidin-3-yl)-1,3,4-oxadiazol-2-yl)-5-(trifluoromethyl)-3-azabicyclo[3.1.0]hexan-3-yl)quinoline-8-carbonitrile] | > 1000 |
| N#Cc1ccc(N2C[C@]3(c4nnc(C5(F)CNC5)o4)C[C@]3(C(F)(F)F)C2)c2cccnc12 [Compound 32, 5-((1S,5R)-1-(5-(3-Fluoroazetidin-3-yl)-1,3,4-oxadiazol-2-yl)-5-(trifluoromethyl)-3-azabicyclo[3.1.0]hexan-3-yl)quinoline-8-carbonitrile] | > 10000 |
| CN(C)Cc1nnc([C@]23CN(c4ccc(C#N)c5ncccc45)C[C@@]2(C(F)(F)F)C3)o1 [Compound 42, 5-((1S,5R)-1-(5-((dimethylamino)methyl)-1,3,4-oxadiazol-2-yl)-5-(trifluoromethyl)-3-azabicyclo[3.1.0]hexan-3-yl)quinoline-8-carbonitrile] | > 10000 |
| CN(C)[C@H]1CC[C@H](c2nnc([C@]34CN(c5ccc(C#N)c6ncccc56)C[C@@]3(C(F)(F)F)C4)o2)CC1 [Compound 21, 5-((1S,5R)-1-(5-((1R,4S)-4-(dimethylamino)cyclohexyl)-1,3,4-oxadiazol-2-yl)-5-(trifluoromethyl)-3-azabicyclo[3.1.0]hexan-3-yl)quinoline-8-carbonitrile] | > 1000 |
| N#Cc1ccc(N2C[C@]3(c4nnc(C5CCNCC5F)o4)C[C@]3(C(F)(F)F)C2)c2cccnc12 (stereo partly shown) [Compound 33] | > 1000 |
